# Experimental data published in EP4356909A1, “1-(SULFONYL)-N-PHENYLPYRROLIDINE-2-CARBOXAMIDES DERIVATIVES AND USE THEREOF” (Selabtec Sciences, SLU, priority 2022, dated 2024).
# Key:
# [1] = test system: NFATc activation in HEK 293T cells; assay: NFATc activation, 3xNFAT-luc dual-luciferase reporter assay; type: cell-based, human; details: HEK 293T cells stimulated with ionomycin, PMA and CaCl2; compounds for 2 hours; at least at 100, 50 and 20 µM (Figure 1)
# Procedure: To determine the effect of compounds of formula (I) on NFATc activation, HEK 293T cells were transfected with 3xNFAT-luc reporter gene and Renilla-luc plasmid as control of gene transfection. After 24 hours, to activate the cellular CN -NFATc signaling pathway, cells were stimulated with ionomycin (lo), PMA and CaCl2 for 4 h to raise intracellular concentration of calcium. As positive control of inhibition of CN activity, cells were treated with 1 µM of CsA 30 min prior to Io/PMA/CaCl2 stimulation. Then, cells were treated with compounds of formula (I) at several concentrations for 2 hours and light units analyzed following manufacture's protocol of the dual-luciferase reporter assay system (Figure 1, Functional effect of pair related structure compounds on NFATc activation).
# [2] = test system: U2OS; assay: Proliferation assay, Methyl violet staining; type: cell-based; details: osteosarcoma (OS) cell line; 5 days of incubation (Figure 7)
# Procedure: (§1) Compound INK-150.46 (or SLB-605) was assayed against several cancer cell lines in proliferation assays.
# (§2) The measurements were taken using an in vitro test to measure cell growth based on Methyl violet staining after 5 days of incubation with the aforementioned drug or control vehicle (DMSO). The procedure was carried out in a 96-well plate. After 1 wash with phosphate-buffered saline (PBS), cells were stained for 20 minutes at room temperature with Methyl violet (0.5 % w/v in water). After 5 washes with PBS, and the addition of acetic acid (10% in water), plates were read in a spectrophotometer at 590 nm. All conditions were tested in 6 independent wells and results expressed as a mean of all replicates.
# [3] = test system: SHSY5Y; assay: Proliferation assay, Methyl violet staining; type: cell-based; details: inhibition values; neuroblastoma cell line; 5 days of incubation; mean of 6 wells
# Procedure: as §1, §2
# [4] = test system: SKNBE2; assay: Proliferation assay, Methyl violet staining; type: cell-based; details: inhibition values; neuroblastoma cell line; 5 days of incubation; mean of 6 wells
# Procedure: as §1, §2
# [5] = test system: RD; assay: Proliferation assay, Methyl violet staining; type: cell-based; details: inhibition values; rhabdomyosarcoma cell line; 5 days of incubation; mean of 6 wells
# Procedure: as §1, §2
# [6] = test system: RH4; assay: Proliferation assay, Methyl violet staining; type: cell-based; details: inhibition values; rhabdomyosarcoma cell line; 5 days of incubation; mean of 6 wells
# Procedure: as §1, §2
smiles,measurement,setting,value
"Cc1c(Cl)cc(F)cc1S(=O)(=O)N1CCC[C@H]1C(=O)N(Cn1nnc2ccccc21)c1ccccc1 [INK-150.46, (S)-N-((1H-Benzo[d][1,2,3]triazol-1-yl)methyl)-1-((3-chloro-5-fluoro-2-methylphenyl)sulfonyl)-N-phenylpyrrolidine-2-carboxamide]",NFATc activation,[1],strongly inhibits NFATc activation
same,inhibitory effect over U2OS (proliferation),[2],inhibitory effect
same,Effect over SHSY5Y (%),[3],48.8%
same,Effect over SKNBE2 (%),[4],59.5%
same,Effect over RD (%),[5],75%
same,Effect over RH4 (%),[6],78.1%
